Source: the supplement of paper PMC10307832

Columns and labels:
Assay in all cases: relative viability (nuclei count vs DMSO), 5 days (fraction); higher = more cells survive
[1] = compound: C1=CC=C2C(=C1)N=C(S2)C(C#N)C3=NC(=NC=C3)NCCC4=CN=CC=C4 + CC1(C)CCC(c2ccc(Cl)cc2)=C(CN2CCN(c3ccc(C(=O)NS(=O)(=O)c4ccc(N[C@H](CCN5CCOCC5)CSc5ccccc5)c(S(=O)(=O)C(F)(F)F)c4)cc3)CC2)C1 [Navitoclax] (partner 0.5 µM)
In short: (§1)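 For relative viability, nuclei counts in treated wells were divided by those in vehicle wells. Lung cancer cell lines had been pin-tool dosed in 1536-well plates the day after seeding and cultured for 5 days, then fixed and stained in one step (final 0.05% Triton X-100, 1% formaldehyde, 1 ug/ml Hoechst) and imaged at 4×. Doses were one drug alone or a fixed anchor-drug dose plus five library-drug doses (not always all listed) in √10 steps, and values are duplicate-plate medians.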

[2] = compound: C#Cc1cccc(Nc2ncnc3cc(OC)c(OCCCCCCC(=O)NO)cc23)c1 [CUDC-101] + N=C(N)NC(=N)NCCc1ccccc1 [Phenformin] (partner 250 µM)
In short: as §1

[3] = compound: C#Cc1cccc(Nc2ncnc3cc(OC)c(OCCCCCCC(=O)NO)cc23)c1 [CUDC-101] + O=C(CCCCCCC(=O)Nc1ccccc1)NO [Vorinostat] (partner 1 µM)
In short: as §1

[4] = compound: C#Cc1cccc(Nc2ncnc3cc(OC)c(OCCCCCCC(=O)NO)cc23)c1 [CUDC-101] + COc1cccc2cc(-c3nc([C@H]4CC[C@H](C(=O)O)CC4)n4ncnc(N)c34)[nH]c12 [OSI-027] (partner 0.5 µM)
In short: as §1

ChaGo-K-1 showed a relative viability ([1]; first compound 0.005 µM) of 0.955, a relative viability ([1]; first compound 0.05 µM) of 0.838 and a relative viability ([1]; first compound 0.1581 µM) of 1.21. It also gave a relative viability ([1]; first compound 0.5 µM) of 0.954, a relative viability ([2]; first compound 0.01 µM) of 0.467 and a relative viability ([2]; first compound 0.03162 µM) of 0.542. The relative viability ([2]; first compound 0.1 µM) was 0.508, the relative viability ([2]; first compound 0.3162 µM) was 0.558 and the relative viability ([2]; first compound 1 µM) was 0.41. It also gave a relative viability ([3]; first compound 0.01 µM) of 0.756, a relative viability ([3]; first compound 0.03162 µM) of 0.727 and a relative viability ([3]; first compound 0.1 µM) of 0.79. The relative viability ([3]; first compound 0.3162 µM) was 0.698, the relative viability ([3]; first compound 1 µM) was 0.578 and the relative viability ([4]; first compound 0.01 µM) was 0.527. For the same cell line, the relative viability ([4]; first compound 0.03162 µM) was 0.579, the relative viability ([4]; first compound 0.1 µM) was 0.541 and the relative viability ([4]; first compound 0.3162 µM) was 0.538. For the same cell line, the relative viability ([4]; first compound 1 µM) was 0.43.

EBC-1 was tested, and the relative viability ([1]; first compound 0.005 µM) was 0.402, the relative viability ([1]; first compound 0.01581 µM) was 0.426 and the relative viability ([1]; first compound 0.05 µM) was 0.317. The relative viability ([1]; first compound 0.1581 µM) was 0.472 and the relative viability ([1]; first compound 0.5 µM) was 0.298.

EKVX was tested, and the relative viability ([1]; first compound 0.005 µM) was 0.947, the relative viability ([1]; first compound 0.01581 µM) was 0.986 and the relative viability ([1]; first compound 0.05 µM) was 1.09. For the same cell line, the relative viability ([1]; first compound 0.1581 µM) was 0.949, the relative viability ([1]; first compound 0.5 µM) was 1.11 and the relative viability ([2]; first compound 0.01 µM) was 0.255. The relative viability ([2]; first compound 0.03162 µM) was 0.229, the relative viability ([2]; first compound 0.1 µM) was 0.211 and the relative viability ([2]; first compound 0.3162 µM) was 0.244. It also gave a relative viability ([2]; first compound 1 µM) of 0.222, a relative viability ([3]; first compound 0.01 µM) of 0.658 and a relative viability ([3]; first compound 0.03162 µM) of 0.658. The relative viability ([3]; first compound 0.1 µM) was 0.623, the relative viability ([3]; first compound 0.3162 µM) was 0.617 and the relative viability ([3]; first compound 1 µM) was 0.363. It also gave a relative viability ([4]; first compound 0.01 µM) of 0.649, a relative viability ([4]; first compound 0.03162 µM) of 0.696 and a relative viability ([4]; first compound 0.1 µM) of 0.694. The relative viability ([4]; first compound 0.3162 µM) was 0.798 and the relative viability ([4]; first compound 1 µM) was 0.579.

With EMC-BAC-2 the relative viability ([1]; first compound 0.005 µM) was 0.823, the relative viability ([1]; first compound 0.01581 µM) was 1.19 and the relative viability ([1]; first compound 0.05 µM) was 1.14. For the same cell line, the relative viability ([1]; first compound 0.1581 µM) was 1.2, the relative viability ([1]; first compound 0.5 µM) was 1.01 and the relative viability ([2]; first compound 0.01 µM) was 0.616. For the same cell line, the relative viability ([2]; first compound 0.03162 µM) was 0.472, the relative viability ([2]; first compound 0.1 µM) was 0.549 and the relative viability ([2]; first compound 0.3162 µM) was 0.487. It also gave a relative viability ([2]; first compound 1 µM) of 0.365, a relative viability ([3]; first compound 0.01 µM) of 0.506 and a relative viability ([3]; first compound 0.03162 µM) of 0.449. The relative viability ([3]; first compound 0.1 µM) was 0.507, the relative viability ([3]; first compound 0.3162 µM) was 0.309 and the relative viability ([3]; first compound 1 µM) was 0.191. For the same cell line, the relative viability ([4]; first compound 0.01 µM) was 0.405, the relative viability ([4]; first compound 0.03162 µM) was 0.371 and the relative viability ([4]; first compound 0.1 µM) was 0.401. The relative viability ([4]; first compound 0.3162 µM) was 0.315 and the relative viability ([4]; first compound 1 µM) was 0.263.

EPLC-272H was tested, and the relative viability ([1]; first compound 0.005 µM) was 0.94, the relative viability ([1]; first compound 0.01581 µM) was 1.05 and the relative viability ([1]; first compound 0.05 µM) was 1.14. The relative viability ([1]; first compound 0.1581 µM) was 1.04, the relative viability ([1]; first compound 0.5 µM) was 1.08 and the relative viability ([2]; first compound 0.01 µM) was 0.279. For the same cell line, the relative viability ([2]; first compound 0.03162 µM) was 0.297, the relative viability ([2]; first compound 0.1 µM) was 0.201 and the relative viability ([2]; first compound 0.3162 µM) was 0.136. It also gave a relative viability ([2]; first compound 1 µM) of 0.114, a relative viability ([3]; first compound 0.01 µM) of 0.345 and a relative viability ([3]; first compound 0.03162 µM) of 0.38. It also gave a relative viability ([3]; first compound 0.1 µM) of 0.464, a relative viability ([3]; first compound 0.3162 µM) of 0.229 and a relative viability ([3]; first compound 1 µM) of 0.118. The relative viability ([4]; first compound 0.01 µM) was 0.266, the relative viability ([4]; first compound 0.03162 µM) was 0.317 and the relative viability ([4]; first compound 0.1 µM) was 0.238. For the same cell line, the relative viability ([4]; first compound 0.3162 µM) was 0.244 and the relative viability ([4]; first compound 1 µM) was 0.187.

In the case of H3255, the relative viability ([1]; first compound 0.005 µM) was 0.591, the relative viability ([1]; first compound 0.01581 µM) was 0.424 and the relative viability ([1]; first compound 0.05 µM) was 0.567. For the same cell line, the relative viability ([1]; first compound 0.1581 µM) was 0.689, the relative viability ([1]; first compound 0.5 µM) was 0.624 and the relative viability ([2]; first compound 0.01 µM) was 0.367. The relative viability ([2]; first compound 0.03162 µM) was 0.322, the relative viability ([2]; first compound 0.3162 µM) was 0.31 and the relative viability ([2]; first compound 1 µM) was 0.166. It also gave a relative viability ([3]; first compound 0.01 µM) of 0.824, a relative viability ([3]; first compound 0.03162 µM) of 0.786 and a relative viability ([3]; first compound 0.3162 µM) of 1.07. For the same cell line, the relative viability ([3]; first compound 1 µM) was 0.368, the relative viability ([4]; first compound 0.01 µM) was 0.571 and the relative viability ([4]; first compound 0.03162 µM) was 0.556. For the same cell line, the relative viability ([4]; first compound 0.3162 µM) was 0.395 and the relative viability ([4]; first compound 1 µM) was 0.204.

HARA gave a relative viability ([1]; first compound 0.005 µM) of 1.09, a relative viability ([1]; first compound 0.01581 µM) of 1.16 and a relative viability ([1]; first compound 0.05 µM) of 1.14. It also gave a relative viability ([1]; first compound 0.1581 µM) of 1.22, a relative viability ([1]; first compound 0.5 µM) of 1.21 and a relative viability ([2]; first compound 0.01 µM) of 0.4. The relative viability ([2]; first compound 0.03162 µM) was 0.397, the relative viability ([2]; first compound 0.1 µM) was 0.476 and the relative viability ([2]; first compound 0.3162 µM) was 0.501. The relative viability ([2]; first compound 1 µM) was 0.248, the relative viability ([3]; first compound 0.01 µM) was 0.505 and the relative viability ([3]; first compound 0.03162 µM) was 0.678. For the same cell line, the relative viability ([3]; first compound 0.1 µM) was 0.577, the relative viability ([3]; first compound 0.3162 µM) was 0.478 and the relative viability ([3]; first compound 1 µM) was 0.22. It also gave a relative viability ([4]; first compound 0.01 µM) of 0.509, a relative viability ([4]; first compound 0.03162 µM) of 0.442 and a relative viability ([4]; first compound 0.1 µM) of 0.322. The relative viability ([4]; first compound 0.3162 µM) was 0.348 and the relative viability ([4]; first compound 1 µM) was 0.171.

With HCC-15 the relative viability ([1]; first compound 0.005 µM) was 0.736, the relative viability ([1]; first compound 0.01581 µM) was 0.787 and the relative viability ([1]; first compound 0.05 µM) was 0.664. For the same cell line, the relative viability ([1]; first compound 0.1581 µM) was 0.749, the relative viability ([1]; first compound 0.5 µM) was 0.602 and the relative viability ([2]; first compound 0.01 µM) was 0.434. The relative viability ([2]; first compound 0.03162 µM) was 0.432, the relative viability ([2]; first compound 0.1 µM) was 0.521 and the relative viability ([2]; first compound 0.3162 µM) was 0.556. The relative viability ([2]; first compound 1 µM) was 0.376, the relative viability ([3]; first compound 0.01 µM) was 0.828 and the relative viability ([3]; first compound 0.03162 µM) was 0.802. It also gave a relative viability ([3]; first compound 0.1 µM) of 0.77, a relative viability ([3]; first compound 0.3162 µM) of 0.716 and a relative viability ([3]; first compound 1 µM) of 0.448. For the same cell line, the relative viability ([4]; first compound 0.01 µM) was 0.697, the relative viability ([4]; first compound 0.03162 µM) was 0.696 and the relative viability ([4]; first compound 0.1 µM) was 0.674. For the same cell line, the relative viability ([4]; first compound 0.3162 µM) was 0.73 and the relative viability ([4]; first compound 1 µM) was 0.584.

With HCC-44 the relative viability ([1]; first compound 0.005 µM) was 0.759, the relative viability ([1]; first compound 0.01581 µM) was 1.13 and the relative viability ([1]; first compound 0.05 µM) was 0.906. It also gave a relative viability ([1]; first compound 0.1581 µM) of 1.02, a relative viability ([1]; first compound 0.5 µM) of 0.872 and a relative viability ([2]; first compound 0.01 µM) of 0.163. The relative viability ([2]; first compound 0.03162 µM) was 0.185, the relative viability ([2]; first compound 0.1 µM) was 0.22 and the relative viability ([2]; first compound 0.3162 µM) was 0.185. It also gave a relative viability ([2]; first compound 1 µM) of 0.139, a relative viability ([3]; first compound 0.01 µM) of 1.04 and a relative viability ([3]; first compound 0.03162 µM) of 1.2. The relative viability ([3]; first compound 0.1 µM) was 1.13, the relative viability ([3]; first compound 0.3162 µM) was 1.02 and the relative viability ([3]; first compound 1 µM) was 1.11. It also gave a relative viability ([4]; first compound 0.01 µM) of 0.527, a relative viability ([4]; first compound 0.03162 µM) of 0.685 and a relative viability ([4]; first compound 0.1 µM) of 0.587. For the same cell line, the relative viability ([4]; first compound 0.3162 µM) was 0.586 and the relative viability ([4]; first compound 1 µM) was 0.295.
